Assay results from patent US11090313B2, “Methods for inhibiting muscle atrophy” (UNIVERSITY OF IOWA RESEARCH FOUNDATION, priority 2010, dated 2021).
“Also recorded” adds a separate entry of the source.

What was measured:
Assay type in all cases: in vivo, mouse
[1] = test system: mice; assay: High fat diet with ursolic acid and/or naringenin; conditions: 5 weeks
Procedure: To determine this, weight-matched mice were provided ad libitum access to standard (Harlan Teklad formula 7013), high fat diet (HFD; Harlan Teklad formula TD93075), or HFD containing varying concentrations of ursolic acid (0.15%) and/or naringenin (0.5% or 1.5%). After the mice consumed these diets for 5 weeks, fasting blood glucose, total body weight, fat mass, liver weight, grip strength, and skeletal muscle weight was measured.

[2] = test system: extensor digitorum longus and peroneus muscles; assay: Ex vivo specific tetanic force of muscles from mice fed ursolic acid
Excerpt: Briefly, six-week old male C57BL/6 mice were provided either standard diet or diet containing 0.27% ursolic acid for 16 weeks before being euthanized. The lower hindlimb was removed (by transsecting the upper hindlimb mid-way through the femur), and placed in Krebs solution aerated with 95% 02 and 5% C02. The gastrocnemius, soleus and tibialis anterior muscles, as well as the distal half of the tibia and fibula were then removed and discarded, leaving the extensor digitorum longus and peroneus muscles with their origins and insertions intact. A suture was placed through the proximal tendon and secured to the distal femur fragment. This ex vivo preparation was then mounted vertically in a water jacket bath (Aurora Scientific 1200A Intact Muscle Test System, filled with aerated Krebs solution) by attaching the suture to a servo-controlled lever (superiorly) and clamping the metatarsals (inferiorly). Passive muscle force was adjusted to a baseline of 1 g, and then muscles were stimulated with supramaximal voltage (80 V) at 100 Hz. The mean time from euthanasia to maximal force measurements was 10 min. After force measurements, muscles were removed and weighed in order to calculate specific titanic force. […] Data are means±SEM from 5-6 mice per diet. P-values were determined with a t-test.

[3] = test system: mice; assay: Immobilization-induced skeletal muscle atrophy model (stapled tibialis anterior); conditions: i.p. twice daily
Procedure: To test this, a mouse model of immobilization-induced skeletal muscle atrophy was used: mice were administered vehicle (corn oil) or varying doses of ursolic acid (positive control) or betulinic acid via intraperitoneal injection twice a day for two days. One tibialis anterior (TA) muscle was immobilized with a surgical staple, leaving the contralateral mobile TA as an intra-subject control. The vehicle or the same dose of ursolic acid or betulinic acid was continuously administered via i.p. injection twice daily for six days before comparing weights of the immobile and mobile TAs.
To test this, mice were administered vehicle (corn oil), ursolic acid (200 mg/kg), naringenin (200 mg/kg), or the combination of ursolic acid and naringenin (each at 200 mg/kg) via i.p injection twice a day for two days. One tibialis anterior (TA) muscle was immobilized with a surgical staple, leaving the contralateral mobile TA as an intrasubject control. Vehicle or the same doses of ursolic acid and/or naringenin was continuously administered via i.p. injection twice daily for six days before comparing weights of the immobile and mobile TAs.
To test this, mice were administered vehicle (corn oil) or tomatidine (50, 100 or 200 mg/kg) via i.p injection twice a day for two days. One tibialis anterior (TA) muscle was immobilized with a surgical staple, leaving the contralateral mobile TA as an intrasubject control. Vehicle or the same doses of tomatidine was administered via i.p. injection twice daily for six days before comparing weights of the immobile and mobile TAs. […] The same protocol was used to compare the effects of vehicle (corn oil) and tomatidine (5, 15 or 50 mg/kg) on immobilization-induced muscle atrophy.

[4] = HFD with ursolic acid 0.15% or naringenin 0.5% or 1.5%
[5] = 0.27% ursolic acid diet 16 weeks vs standard diet

C[C@H]1[C@H](C)CC[C@]2(C(=O)O)CC[C@]3(C)C(=CC[C@@H]4[C@@]5(C)CC[C@H](O)C(C)(C)[C@@H]5CC[C@]43C)[C@H]12 [ursolic acid]
fasting blood glucose in high fat fed mice ([1]; HFD with ursolic acid 0.15% and/or naringenin 0.5% or 1.5%): partially prevented
grip strength in high fat fed mice [1, 4]: increased strength to a greater extent than naringenin
skeletal muscle weight in high fat fed mice [1, 4]: increased muscle weight
maximal tetanic force [2, 5]: did not differ between the two groups
muscle weight (extensor digitorum longus and peroneus) [2, 5]: did not differ between the two groups
specific force generated by muscles ex vivo ([2]; 0.27% ursolic acid diet 16 weeks, 80 V, 100 Hz): increased the specific force generated by muscles ex vivo
dose of maximal inhibition of immobilization-induced muscle atrophy [3]: 200 mg/kg
immobilization-induced muscle atrophy (weights of immobile vs mobile TA) ([3]; 2 days before and 6 days after immobilization, ursolic acid and betulinic acid varying doses, naringenin 200 mg/kg, tomatidine 5-200 mg/kg): reduced muscle atrophy in a dose-dependent manner; also recorded: reduces immobilization-induced skeletal muscle atrophy
